# In patent US9822110B2, “Sulfonamide derivative and pharmaceutical use thereof” (EA Pharma Co., Ltd., priority 2013, dated 2017):
# Biological target: T1, MAdCAM-1/α4β7 integrin (Homo sapiens, UniProt P13612+P26010)
# T1 construct: a human B-cell line known to express α4β7 integrin; endogenous in cells; host or cells: RPMI-8866 (human B-cell line)
# T1 sequence (P13612 34-1032): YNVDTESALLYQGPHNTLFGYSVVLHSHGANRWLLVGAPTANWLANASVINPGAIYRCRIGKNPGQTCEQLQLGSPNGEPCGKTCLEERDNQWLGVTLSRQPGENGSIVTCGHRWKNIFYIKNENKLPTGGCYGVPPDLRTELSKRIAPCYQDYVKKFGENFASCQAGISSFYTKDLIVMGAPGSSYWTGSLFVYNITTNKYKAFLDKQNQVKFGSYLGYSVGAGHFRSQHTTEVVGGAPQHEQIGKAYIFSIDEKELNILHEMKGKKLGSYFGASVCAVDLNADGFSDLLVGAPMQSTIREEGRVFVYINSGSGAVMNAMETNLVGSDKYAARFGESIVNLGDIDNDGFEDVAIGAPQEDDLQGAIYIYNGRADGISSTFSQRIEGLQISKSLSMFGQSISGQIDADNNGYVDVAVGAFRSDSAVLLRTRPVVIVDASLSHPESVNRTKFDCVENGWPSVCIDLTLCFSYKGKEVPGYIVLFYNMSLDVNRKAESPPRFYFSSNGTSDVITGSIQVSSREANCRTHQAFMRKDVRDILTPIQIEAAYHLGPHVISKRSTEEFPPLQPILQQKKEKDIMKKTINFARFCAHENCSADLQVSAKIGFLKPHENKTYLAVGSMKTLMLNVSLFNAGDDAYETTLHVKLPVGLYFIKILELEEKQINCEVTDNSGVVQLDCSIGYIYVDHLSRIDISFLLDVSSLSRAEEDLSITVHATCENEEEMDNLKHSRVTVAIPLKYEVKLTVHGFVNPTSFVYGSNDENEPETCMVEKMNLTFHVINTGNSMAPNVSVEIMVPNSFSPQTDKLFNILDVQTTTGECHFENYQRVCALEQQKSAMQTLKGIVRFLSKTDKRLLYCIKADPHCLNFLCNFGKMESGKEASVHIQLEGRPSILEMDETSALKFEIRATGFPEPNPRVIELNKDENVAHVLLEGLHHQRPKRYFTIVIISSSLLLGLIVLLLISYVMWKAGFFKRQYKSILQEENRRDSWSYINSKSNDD
# T1 sequence (P26010 20-798): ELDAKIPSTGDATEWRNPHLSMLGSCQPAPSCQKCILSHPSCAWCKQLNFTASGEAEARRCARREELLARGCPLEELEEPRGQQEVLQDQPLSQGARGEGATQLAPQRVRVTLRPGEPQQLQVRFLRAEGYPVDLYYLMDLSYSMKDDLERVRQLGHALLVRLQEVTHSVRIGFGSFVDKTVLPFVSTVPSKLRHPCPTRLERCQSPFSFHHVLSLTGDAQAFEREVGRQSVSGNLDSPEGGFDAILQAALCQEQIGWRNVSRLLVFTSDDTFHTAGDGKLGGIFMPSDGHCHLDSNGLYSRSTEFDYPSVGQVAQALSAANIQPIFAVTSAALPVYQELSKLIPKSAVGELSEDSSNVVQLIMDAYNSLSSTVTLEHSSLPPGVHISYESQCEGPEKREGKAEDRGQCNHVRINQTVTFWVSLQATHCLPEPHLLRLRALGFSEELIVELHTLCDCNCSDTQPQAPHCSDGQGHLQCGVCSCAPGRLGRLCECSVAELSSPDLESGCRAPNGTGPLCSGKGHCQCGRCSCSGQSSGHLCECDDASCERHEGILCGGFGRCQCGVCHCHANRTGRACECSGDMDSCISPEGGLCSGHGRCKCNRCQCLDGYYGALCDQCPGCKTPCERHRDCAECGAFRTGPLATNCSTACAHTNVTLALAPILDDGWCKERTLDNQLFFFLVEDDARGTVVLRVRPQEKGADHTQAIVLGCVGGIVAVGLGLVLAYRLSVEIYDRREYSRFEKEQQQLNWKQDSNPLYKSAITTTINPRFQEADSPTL
# Test: Evaluation test (1) for MAdCAM-1/α4β7 integrin binding inhibitory activity in the presence of serum (RPMI-8866 cell binding to MAdCAM-1/Fc)
# Assay type: cell-based
# Settings: RPMI-8866 cells, recombinant mouse MAdCAM-1/Fc, human serum at final concentration of 50%; read-out: α4β7 Serum Activity rank when α4β7 serum was added
# Protocol: The selectivity was determined by dividing the IC50 value in the evaluation test for VCAM-1/α4β1 integrin binding inhibitory activity by the IC50 value in the evaluation test for MAdCAM-1/α4β7 integrin binding inhibitory activity. • (3) Evaluation Test (1) for MAdCAM-1/α4β7 Integrin Binding Inhibitory Activity in the Presence of Serum
# The ability of test substances to inhibit the binding of RPMI-8866 cell line, a human B-cell line known to express α4β7 integrin, to MAdCAM-1 was examined.
# A 96-well microtiter plate was coated overnight at 4° C. with a recombinant mouse MAdCAM-1/Fc (R&D systems) solution diluted with the buffer A (carbonate buffer, pH 9.6). After washing once with PBS, 150 μL/well of Block Ace (manufactured by Snow Brand Milk Products Co., Ltd.) was added, and it was incubated at room temperature for 2 hours. After removal, it was washed once with PBS.
# 100 μL of each of test substances and RPMI-8866 cells diluted with a binding buffer solution (DMEM containing 40 mM HEPES, 0.2% BSA, and 4 mM MnCl2) to various concentrations was added to the plate coated with MAdCAM-1/Fc, so that human serum was contained at a final concentration of 50%, and it was incubated at 30° C. for 15 minutes to 60 minutes. After the cells were bound to the wells, unbound cells were removed by washing with PBS. 50 μL/well of the buffer solution C (PBS containing 1.5% Triton X-100) was added to the plate to dissolve the bound RPMI-8866 cells. 30 μL of substrate buffer (Promega, CytoTox 96 Non-Radioactive Cytotoxicity Assay) was added to 30 μL of a cell lysate to allow a reaction for 30 minutes at room temperature in a dark place. 30 μL of stop solution (Promega, CytoTox 96 Non-Radioactive Cytotoxicity Assay) was added thereto to determine the absorbance at 490 nm using a plate reader. The absorbance was obtained herein by detecting the activity of lactate dehydrogenase (LDH) eluted in a supernatant of each well, that is, the absorbance is proportional to the number of RPMI-8866 cells remaining on the plate by being bound to MAdCAM-1. The test was duplicated, and the cell binding rate at various concentrations with the absorbance of the well containing no test substance being taken as 100% was determined, to calculate the concentration IC50 at which 50% of binding was inhibited.
row,SMILES,IC50 [nM]
1,"Cc1c(-c2ccc(C[C@H](NC(=O)c3cc(F)c(NS(=O)(=O)c4ccc(C5CCOCC5)cc4)cc3F)C(=O)O)cc2)c(=O)n(C)c(=O)n1C [Example 87, (2S)-2-[[2,5-Difluoro-4-[(4-tetrahydropyran-4-ylphenyl)sulfonylamino]benzoyl]amino]-3-[4-(1,3,4-trimethyl-2,6-dioxopyrimidin-5-yl)phenyl]propanoic acid]",> 200
2,Cc1c(-c2ccc(C[C@H](NC(=O)c3cc(F)c(NS(=O)(=O)c4ccc(-c5cnc(C(C)C)nc5)cc4)cc3F)C(=O)O)cc2)c(=O)n(C)c(=O)n1C [Example 88],50 to 200
3,"Cc1c(-c2ccc(C[C@H](NC(=O)c3cc(F)c(NS(=O)(=O)c4ccc(-c5cnc(C6CCOCC6)nc5)cc4)cc3F)C(=O)O)nc2)c(=O)n(C)c(=O)n1C [Example 89, (2S)-2-[[2,5-Difluoro-4-[[4-(2-tetrahydropyran-4-ylpyrimidin-5-yl)phenyl]sulfonylamino]benzoyl]amino]-3-[5-(1,3,4-trimethyl-2,6-dioxopyrimidin-5-yl)-2-pyridyl]propanoic acid]",> 200
